From patent US20240245673A1, “Papain-like protease (PLpro) inhibitors” (Pfizer Inc., priority 2022, published 2024) come the findings set out here.

Molecules are shown by their SMILES. Where only a bound is given, the exact number is not on record here.

The first test has as its target SARS-CoV-2 Papain like protease (PLpro) (Severe acute respiratory syndrome coronavirus 2 (2019-nCoV) (SARS-CoV-2), UniProt P0DTD1). In words: Papain Like Protease (PLpro) biochemical assay with profluorogenic substrate Z-RLRGG-AMC. Particulars: IC50 (μM), SARS-CoV-2 PLpro 6.25 nM, 25 μM Z-RLRGG-AMC substrate, 60 minute reaction.
A word on the IC50: it is the concentration that gives 50% inhibition. `CCn1cc(-c2cc(C(C)NC(=O)c3ccccc3C)c3ccccc3n2)cn1` (centres unmarked) [Example 110, N-{1-[2-(1-ethyl-1H-pyrazol-4-yl)quinolin-4-yl]ethyl}-2-methylbenzamide] gave a half-inhibitory concentration (IC50) of 0.224 µM.

Still in this test, the particulars now being: SARS-CoV-2 PLpro 6.25 nM, 25 μM Z-RLRGG-AMC substrate, 60 minute reaction; read-out: IC50.
As for `Cc1ccccc1C(=O)N[C@H](C)c1cc(OC2CCOC2)nc2ccccc12` (stereo partly drawn) [Example 46, 2-methyl-N-((1R)-1-(2-((tetrahydrofuran-3-yl)oxy)quinolin-4-yl)ethyl)benzamide], the 50% inhibitory concentration (IC50) worked out at 3.62 µM.

Regarding `COC(=O)c1cc(-c2cc([C@@H](C)NC(=O)c3cc(CN)ccc3C)c3ccccc3n2)n(C)c1` [Example 263, methyl(R)-5-(4-(1-(5-(aminomethyl)-2-methylbenzamido)ethyl)quinolin-2-yl)-1-methyl-1H-pyrrole-3-carboxylate], the IC50 was 0.231 µM. Same read-out and setting: under `COC[C@H](OCc1cscn1)c1ccc(C(=O)N[C@H](C)c2cc(-c3cnn(C)c3)nc3ccccc23)c(C)c1` (single isomer, unassigned) [Example 333, 4-((R*)-2-methoxy-1-(thiazol-4-ylmethoxy)ethyl)-2-methyl-N-((R)-1-(2-(1-methyl-1H-pyrazol-4-yl)quinolin-4-yl)ethyl)benzamide] stands less than 0.001 µM; under `Cc1ccc(CN)cc1C(=O)N[C@H](C)c1cc(-c2cc(C(N)=O)c[nH]2)nc2ccccc12` [Example 21, (R)-5-(4-(1-(5-(aminomethyl)-2-methylbenzamido)ethyl)quinolin-2-yl)-1H-pyrrole-3-carboxamide], 0.016 µM. In the case of `Cc1ccccc1C(=O)NC(C)c1cc(NCC2CCCOC2)nc2ccccc12` (centres unmarked) [Example 140, 2-methyl-N-[1-(2-{[(oxan-3-yl)methyl]amino}quinolin-4-yl)ethyl]benzamide], the half-inhibitory concentration (IC50) was 1.96 µM.

With `Cc1ccccc1C(=O)N[C@H](C)c1cc(-c2ccnn2C)nc2ccccc12` [Example 50, (R)-2-methyl-N-(1-(2-(1-methyl-1H-pyrazol-5-yl)quinolin-4-yl)ethyl)benzamide], the half-maximal inhibitory concentration (IC50) is 0.489 µM. The same measure, in the same setting: for `COCCOc1cc([C@@H](C)NC(=O)c2ccccc2C)c2ccccc2n1` [Example 47, (R)-N-(1-(2-(2-methoxyethoxy)quinolin-4-yl)ethyl)-2-methylbenzamide] the value was 3.13 µM.
